The source of these data is US9657324B1, “Method for treating or preventing mood disorders” (VIRUS IKAGAKU KENKYUSHO INC., priority 2008, dated 2017).

The structures appear in SMILES notation.

In test [1] the test system is CAML. In words: Expression of CAML in HHV-6-infected U373 cells in the presence of ganciclovir (indirect fluorescent antibody technique). The format is cell-based, human. The settings on record: U373 cell line infected with HHV-6, ganciclovir added after infection. As for the experimental part:
The human glial cell line (U373) is infected with HHV-6, and then ganciclovir is added. The amount of CAML expressed in the infected cell line in the presence of ganciclovir is measure by the indirect fluorescent antibody technique.

Test [2] has as its system HHV-6 variant B. The settings on record: "is considered to be", read-out: effective concentration against HHV-6 variant B in terms of IC50; cited from earlier work.
The subject of test [3] is HHV-6 variant B HST strain. In words: Expression of SITH-1 in HHV-6-infected U373 cells in the presence of ganciclovir (real-time PCR). The format is cell-based, human herpesvirus 6. To be noted: U373 glial cell line infected with HHV-6, one day after infection, relative to ganciclovir (-). As for the experimental part: The human glial cell line (U373) was infected with HHV-6 in the presence of ganciclovir, and the amount of SITH-1 expressed in the infected cell line was measured by the real-time PCR technique.
The U373 cells were cultured overnight in the presence of ganciclovir at various concentrations (FIG. 14) and infected with an HHV-6 variant B HST strain, and the amount of SITH-1 that was expressed in cells one day after the infection was measured by the real-time PCR technique.
Since the effective concentration of ganciclovir against HHV-6 variant B is considered to be about 10 μM in terms of IC50, three concentrations were obtained by 3-fold dilutions, with 10 μM in the middle.
The vertical axis of the graph in FIG. 14 plots the relative amount of expression of SITH-1 mRNA, with the value for ganciclovir (-) being taken as unity. […] When ganciclovir was used in the amounts of […], 10 μM and 30 μM, the amount of expression of SITH-1 mRNA was suppressed by about 20%, 40% and more than 80%, respectively.
On the technique in general: Real-time PCR tracks product formation cycle by cycle.

The test system of test [4] is HHV-6 or Epstein-Barr virus (EBV). The settings on record: patients with encephalitis/encephalopathy-like and long-standing fatigue symptoms, presumably due to HHV-6 or EBV infection; cited from earlier work.

For `Nc1nc(O)c2ncn(COC(CO)CO)c2n1` [ganciclovir], the “amount of CAML expression” value in test [1] is on record as “suppressed by ganciclovir in a dose-dependent manner”. In test [2], the IC50 is ~10 µM. For the same molecule, the “amount of expression of SITH-1 mRNA suppressed” value in test [3] (ganciclovir 3 μM) is recorded as “about 20%”; in test [3] (ganciclovir 10 μM), ~40%; in test [3] (ganciclovir 30 μM), “more than 80%”.

For `CC(C)[C@H](N)C(=O)OCC(CO)OCn1cnc2c(=O)nc(N)[nH]c21` (stereo partly drawn) [valganciclovir], in test [4], the “patients who had their symptoms improved” value is 75%.
